Measurements as given in patent publication US9388198B2, “Heterocyclic amide derivatives as P2X7 receptor antagonists” (ACTELION PHARMACEUTICALS LTD, priority 2014, dated 2016).

biological target: human recombinant P2X7 receptor (Homo sapiens (Human), UniProt Q99572); test: YO-PRO1 uptake assay in HEK cells stably expressing human P2X7; assay type: cell-based; settings: HEK-293 cells expressing human recombinant P2X7; 250 μM ATP, 90 minutes; YO-PRO-1 fluorescence; read-out: IC50 (antagonistic activity with respect to the P2X7 receptor)
Sequence (Q99572 whole entry): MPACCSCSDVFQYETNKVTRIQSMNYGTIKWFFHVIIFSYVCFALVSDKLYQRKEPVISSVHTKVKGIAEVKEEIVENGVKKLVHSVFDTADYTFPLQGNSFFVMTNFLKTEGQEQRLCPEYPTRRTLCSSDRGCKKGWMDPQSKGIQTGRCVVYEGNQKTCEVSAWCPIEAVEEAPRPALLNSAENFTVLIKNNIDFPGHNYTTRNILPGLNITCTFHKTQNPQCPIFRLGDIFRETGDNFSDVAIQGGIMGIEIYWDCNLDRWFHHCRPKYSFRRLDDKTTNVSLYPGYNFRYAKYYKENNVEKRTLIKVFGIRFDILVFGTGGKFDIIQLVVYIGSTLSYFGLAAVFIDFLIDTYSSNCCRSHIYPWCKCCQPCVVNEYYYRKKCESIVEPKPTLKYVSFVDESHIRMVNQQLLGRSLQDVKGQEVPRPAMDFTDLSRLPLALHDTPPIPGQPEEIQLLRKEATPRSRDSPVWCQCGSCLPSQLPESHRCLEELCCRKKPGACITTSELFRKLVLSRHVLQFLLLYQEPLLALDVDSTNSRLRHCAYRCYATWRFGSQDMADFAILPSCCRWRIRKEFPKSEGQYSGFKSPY
Method: Cell Line Generation and YO-PRO Assay Cell line generation was performed in general according to established molecular cloning protocols. Specifically, RNA was extracted from human whole blood using the Qiagen RNeasy kit (Qiagen, CH) according to the manufacturer's instructions. […] BC011913) was amplified with the following primers: [NT] and [NT] The amplified sequence was subsequently ligated into a pcDNA3.1 (+) NotI, NheI digested plasmid. Human embryonic kidney (HEK) cells (ATCC CRL-1573, Manassas, Va., USA) were transfected with the pcDNA3.1 (+). hP2X7 plasmid using lipofectamine 2000 (Invitrogen AG, CH) according to the manufacturer's instructions. Following a 24 h exposure to DNA, cells were trypsinized and re-seeded at low density in the presence of 250 μg Geneticin. Geneticin resistant cells were then selected during two consecutive rounds of cloning by serial limiting dilution with visual inspection. […] Specific cell clones were chosen based on RNA and protein expression. […] Cells were grown to confluency in adherent culture at 37° C. in a humidified 5% CO2 incubator (split 1⁄5 every 3-4 days with DMEM, 10% FCS, 1% Penicillin/Streptomycin, 250 μg/ml Geneticin). […] Medium was removed from cells and 50 μl of assay buffer containing 0.5 μM YO-[…] was added into the wells. Solutions of antagonist compounds were prepared by serial dilutions of a 10 mM DMSO solution of the antagonist into PBS using a BioMek (Beckman Coulter). Each concentration was performed in duplicate. […] The cells were incubated with the antagonists of the present invention together with ATP at a final concentration of 250 μM for 90 minutes. During this time period, four time points were taken. Each time point comprised the average of several measurements made within a few seconds. Fluorescence was measured in the FLIPR tetra (Molecular Devices) using the filters appropriate for YO-[…] fluorescence (excitation 485/20, emission 530/25). The FLIPR tetra was equipped with Molecular Devices Screen Works system control software to define and run experimental protocols. […] For IC50 measurements the maximum intensity is plotted against the concentration of compound to determine IC50 values.

SMILES | IC50 [nM]
O=C(NC(CO)C1CCCCCC1)C1COc2ncsc21 (centres unmarked) [Example 1, N-(1-cycloheptyl-2-hydroxyethyl)-5,6-dihydrofuro[2,3-d]thiazole-6-carboxamide] | 818
O=C(NCC1(c2ccc(Cl)nc2)CCCCC1)C1COc2ncsc21 (centres unmarked) [Example 2, N-((1-(6-chloropyridin-3-yl)cyclohexyl)methyl)-5,6-dihydrofuro[2,3-d]thiazole-6-carboxamide] | 28
Cc1ncc(C(CNC(=O)C2COc3ncsc32)N2CCC(F)(F)CC2)cn1 (centres unmarked) [Example 3, N-(2-(4,4-difluoropiperidin-1-yl)-2-(2-methylpyrimidin-5-yl)ethyl)-5,6-dihydrofuro[2,3-d]thiazole-6-carboxamide] | 2040
O=C(NCC(c1ccc(C(F)(F)F)nc1)N1CCOCC1)C1COc2ncsc21 (centres unmarked) [Example 4, N-(2-morpholino-2-(6-(trifluoromethyl)pyridin-3-yl)ethyl)-5,6-dihydrofuro[2,3-d]thiazole-6-carboxamide] | 332
O=C(N[C@H](CO)C1CCCCC1)C1CCc2ncsc21 (stereo partly drawn) [Example 5, N-((S)-1-cyclohexyl-2-hydroxyethyl)-5,6-dihydro-4H-cyclopenta[d]thiazole-6-carboxamide] | 272
Cc1ncc(C(CNC(=O)C2CCc3ncsc32)N2CCOCC2)cn1 (centres unmarked) [Example 6, N-(2-(2-methylpyrimidin-5-yl)-2-morpholinoethyl)-5,6-dihydro-4H-cyclopenta[d]thiazole-6-carboxamide] | 1370
Cc1ncc(C(CNC(=O)C2CCc3ncsc32)N2CCC(F)(F)CC2)cn1 (centres unmarked) [Example 7, N-(2-(4,4-difluoropiperidin-1-yl)-2-(2-methylpyrimidin-5-yl)ethyl)-5,6-dihydro-4H-cyclopenta[d]thiazole-6-carboxamide] | 478
O=C(N[C@H](CO)C1CCCCC1)C1CCOc2ncsc21 (stereo partly drawn) [Example 8, N-((S)-1-cyclohexyl-2-hydroxyethyl)-6,7-dihydro-5H-pyrano[2,3-d]thiazole-7-carboxamide] | 340
Cc1ncc(C(CNC(=O)C2CCOc3ncsc32)N2CCOCC2)cn1 (centres unmarked) [Example 9, N-(2-(2-methylpyrimidin-5-yl)-2-morpholinoethyl)-6,7-dihydro-5H-pyrano[2,3-d]thiazole-7-carboxamide] | 1430
O=C(NCC(c1ccc(Cl)nc1)N1CCC(F)(F)CC1)C1CCOc2ncsc21 (centres unmarked) [Example 10, N-(2-(6-chloropyridin-3-yl)-2-(4,4-difluoropiperidin-1-yl)ethyl)-6,7-dihydro-5H-pyrano[2,3-d]thiazole-7-carboxamide] | 74
C[C@@H](NC(=O)C1CCCc2ncsc21)C1CCCCC1 (stereo partly drawn) [Example 11, N-((R)-1-cyclohexylethyl)-4,5,6,7-tetrahydrobenzo[d]thiazole-7-carboxamide] | 60
O=C(N[C@H](CO)C1CCCCC1)C1CCCc2ncsc21 (stereo partly drawn) [Example 12, N-((S)-1-cyclohexyl-2-hydroxyethyl)-4,5,6,7-tetrahydrobenzo[d]thiazole-7-carboxamide] | 41
O=C(NCC1(c2ccc(Cl)nc2)CCCCC1)C1CCCc2ncsc21 (centres unmarked) [Example 13, N-((1-(6-chloropyridin-3-yl)cyclohexyl)methyl)-4,5,6,7-tetrahydrobenzo[d]thiazole-7-carboxamide] | 3.4
O=C(NCC1(c2ccc(Cl)nc2)CCC(F)(F)CC1)C1CCCc2ncsc21 (centres unmarked) [Example 14, N-((1-(6-chloropyridin-3-yl)-4,4-difluorocyclohexyl)methyl)-4,5,6,7-tetrahydrobenzo[d]thiazole-7-carboxamide] | 6.3
O=C(NCC(c1cnc(C(F)(F)F)nc1)N1CCOCC1)C1CCCc2ncsc21 (centres unmarked) [Example 15, N-(2-morpholino-2-(2-(trifluoromethyl)pyrimidin-5-yl)ethyl)-4,5,6,7-tetrahydrobenzo[d]thiazole-7-carboxamide] | 33
O=C(N[C@H](CO)C1CCCCC1)C1CCCCc2ncsc21 (stereo partly drawn) [Example 16, N-((S)-1-cyclohexyl-2-hydroxyethyl)-5,6,7,8-tetrahydro-4H-cyclohepta[d]thiazole-8-carboxamide] | 348
O=C(N[C@H](CO)C1CCCCC1)C1CCCCc2ncsc21 (stereo partly drawn) [Example 17, N-((S)-1-cyclohexyl-2-hydroxyethyl)-5,6,7,8-tetrahydro-4H-cyclohepta[d]thiazole-8-carboxamide] | 543
